Drawing on patent US5736523A, “Antineoplastic heteronapthoquinones” (Biochem Pharma Inc., priority 1995, dated 1998), this text covers IC50 and VLB/OV3 for 21 compounds.

Counter-ions that a name gives are not always drawn.

Broadly, the IC50 is the concentration that gives 50% inhibition.

One assay has as its system SKVLB (Ovarian; multidrug resistant). As to the kind of experiment: In vitro cytotoxicity, microculture tetrazolium (MTT) assay, SKVLB. Format: cell-based, human. As to conditions: Homo sapiens, SKVLB, multidrug resistant; read-out: IC50. How it is done:
In Vitro Cytotoxicity--Microculture Tetrazolium Assay
The microculture tetrazolium assay was used to test in vitro cytotoxicity. This assay is described in Plumb, J. A. et al., 1989 Cancer Research 49, 4435-4440, which is herein incorporated by reference. The cytotoxicity of compounds towards tumor cells is measured in vitro using the assay. This assay method is based upon the ability of live, but not dead cells to reduce the yellow water soluble dye 3-(4;5-dimethylthiazol-2-yl)-2,5-diphenyltetrazolium bromide (MTT) to its water insoluble purple formazan product.
Human Tumor Cell lines, used were:
SKVLB (Ovarian; multidrug resistant)--Dr. V. Ling, Ontario
The cells were maintained in exponential growth in culture in minimal essential media (MEM) supplemented with non-essential amino acids, and containing 15% (v/v) fetal bovine serum, 5 mM L-glutamine, 1 mM sodium pyruvate, and 0.1 U/ml insulin. All cell lines were grown at 37° C. in an atmosphere of 5% CO2 in air.
Test compounds: 20 mM in DMSO and diluted to a final concentration of 200 μM in culture medium before use.
The following is the generic description of the assay method. It should be noted that although the conditions described work well with the cells listed above, the initial plating density and the MTT concentration used should be verified for each new cell line used to test compounds.
For each assay, doxorubicin is included as an inter-assay standard. This allows us to monitor the behaviour of the assay in general, and in particular, to check that the SKVLB line has maintained its resistant phenotype.
The plate layout is done in the following manner: The assays are carried out in 96-well (8 well×12 well) microtiter plates. Serial dilutions of the compound are tested along the length of the plate. A 1:3 serial dilution of compound in culture medium covers a concentration range from 100 μM to 1.7 nM. Each concentration of compound is tested in quadruplet, allowing two compounds to be tested per plate. Wells containing no cells (blank) and cells with no test compound (control) are included on each plate.
Cells are plated out in 100 μl of culture medium in the microtiter plates at a density of around 1,500-4,000 cells per well. The plates are incubated overnight to allow the cells to become adherent after which the test compound is added (100 μl of appropriate dilution per well). The cells are incubated with test compound at 37° C. for 48 h after which the compound is replaced with fresh medium. After a further 48 h incubation at 37° C., 50 μl of MTT solution (2 mg/ml) is added to each well. The plates are incubated in the dark for 4 h at 37° C. after which the medium is removed. The MTT formazan product is extracted from the cells by the addition of 200 μl DMSO followed by 50 μl of Sorensen's buffer. The plates are shaken briefly and the absorbance at 570 nm is read using a Molecular Devices UV max plate reader. Curves are fit to the MTT assay data using a four parameter logistic equation, and the data are normalized to fit a 0% to 100% survival scale.
Consider `CO[C@H]1O[C@H](C(=O)Nc2ccccc2)CC2=C1C(=O)c1ccccc1C2=O` (relative stereo) [BCH2041, (1,3-trans)-1-methoxy-3-N-anilinylcarbonyl-5,10-dioxo-3,4,5,10-tetrahydro-1H-naphtho-[2,3-c]-pyran], for which the IC50 was determined as 10 µM.

Staying with this assay, now noted: ratio SKVLB / SKOV3.
As to `COC(=O)[C@@H](N)COC1OC(C(C)=O)CC2=C1C(=O)c1ccccc1C2=O` (mixture of isomers) [BCH1654, (1S,2'S,3R) and (1R,2'S,3S)-methyl-(1-[O-serinemethyl ester]-5,10-dioxo-3,4,5,10-tetrahydronaphtaleno [2,3-C]pyran-3-yl) ketone hydrochloride], the VLB/OV3 came out at 5.25.

`C[C@@H]1O[C@@H](OC2OC(C#N)CC3=C2C(=O)c2ccccc2C3=O)C[C@H](NC(=O)C(F)(F)F)[C@@H]1O` (mixture of isomers) [BCH1688, (1'-S,1-R,3-S) and (1'-S,1-S,3-R)-3-cyano-1-[2',3',6'-trideoxy-3'-trifluoroacetamido-4'-hydroxy-L-lyxohexopyranose)-5,10-dioxo-3,4,5,10-tetrahydronaphtho-[2,3-C] pyran-3-yl]: the VLB/OV3 is on record as 4.37.

As for `CC(=O)C1CC2=C(C(=O)c3ccccc3C2=O)C(OCC2CCCN(C(=O)OC(C)(C)C)C2)O1` (mixture of isomers) [BCH2060, Methyl-(1-O-[N-BOC-3-piperidinemethanol]-5,6-dioxo-3,4,5,10-tetrahydronaphthaleno-[2,3-c]pyran-3-yl) ketone, mixture of isomers], the VLB/OV3 is on record as 2.19.

Consider `CC(=O)C1CC2=C(C(=O)c3ccccc3C2=O)C(OCC2CCCNC2)O1` (mixture of isomers) [BCH2061, Methyl-(1-O-[3-piperidinemethanol]-5,10-dioxo-3,4,5,10-tetrahydronaphthaleno-[2,3-c]pyran3-yl) ketone hydrochloride salt, mixture of isomers], for which the VLB/OV3 is 18.

`CC(=O)C1CC2=C(C(=O)c3ccccc3C2=O)C(O[C@H]2C[C@H](NC(=O)C(F)(F)F)[C@H](OS(C)(=O)=O)[C@H](C)O2)O1` (mixture of isomers) [BCH2095, (1'-S,1-S,3-R) and (1'-S,1-R,3-S)-methyl-(1-[2',3',4',6' tetradeoxy-3'-trifluoroacetamido-4'-O-methane-sulfonyl-L-lyxohexopyranose)-5,10-dioxo-3,4,5,10 tetrahydronaphtho-[2,3-c]pyran-3-yl) ketone]: the VLB/OV3 worked out at 8.16.

On to `CC(=O)CC1CC2=C(C(=O)c3cccc(O)c3C2=O)C(O[C@H]2C[C@H](NC(=O)C(F)(F)F)[C@H](O)[C@H](C)O2)O1` (mixture of isomers) [BCH2098, (1'-S,1-S,3-R) and (1'-S,1-R,3-S)-1-(6-hydroxy-1-(2',3',6'-trideoxy-3'-trifluoroacetamido,4-hydroxy-L-lyxopyranose)-5,10-dioxo-3,4,5,10 tetrahydronaphtho-[2,3-c]pyran-3-yl) propane-2-one], for which the VLB/OV3 amounted to 4.

As for `CC(=O)C1CC2=C(C(=O)c3ccccc3C2=O)C(OCC2CCCCN2)O1` (racemic) [BCH2069, Methyl-(1-O-[2'-piperidinemethanol]-5,10-dioxo-3,4,5,10-tetrahydronaphthaleno-[2,3-c]pyran-3-yl) ketone, racemic, hydrochloride], the VLB/OV3 was 2-9.8.

Consider `CO[C@H]1O[C@H](C(=O)Nc2ccccc2)CC2=C1C(=O)c1ccccc1C2=O` (relative stereo) [BCH2041, (1,3-trans)-1-methoxy-3-N-anilinylcarbonyl-5,10-dioxo-3,4,5,10-tetrahydro-1H-naphtho-[2,3-c]-pyran], for which the VLB/OV3 amounted to 5.

Take `CO[C@@H]1O[C@H](C(=O)Nc2ccccc2)CC2=C1C(=O)c1ccccc1C2=O` (relative stereo) [BCH2042, (1,3-cis)-1-methoxy-3-N-anilinylcarbonyl-5,10-dioxo-3,4,5,10-tetrahydro-1H-naphtho-[2,3-c]-pyran]: the VLB/OV3 worked out at 3.51.

With `CO[C@H]1O[C@H](C(=O)O)CC2=C1C(=O)c1ccccc1C2=O` (relative stereo) [BCH2045, (1,3-trans)-1-methoxy-3-carboxyl-5,10-dioxo-3,4,5,10-tetrahydro-1H-naphtho-[2,3-c]-pyran], the VLB/OV3 was determined as 3.

As for `CC(=O)[C@H]1CC2=C(C(=O)c3ccc(O)cc3C2=O)[C@H](O[C@H]2C[C@H](NC(=O)C(F)(F)F)[C@H](O)[C@H](C)O2)O1` [BCH1180, (1'S,1S,3R)-Methyl (5,10-dioxo-1-(2',3',6'-trideoxy-3'-trifluoroacetamido-L-lyxohexopyranose)-7-hydroxy-3,4,5,10-tetrahydro [2,3-C]pyran-3-yl) ketone], the VLB/OV3 was 10.20.

As to `CC(=O)[C@@H]1CC2=C(C(=O)c3ccc(O)cc3C2=O)[C@@H](O[C@H]2C[C@H](NC(=O)C(F)(F)F)[C@H](O)[C@H](C)O2)O1` [BCH1181, (1'S,1R,3S)-Methyl (5,10-dioxo-1-(2',3',6'-trideoxy-3'-trifluoroacetamido-L-lyxohexopyranose)-7-hydroxy-3,4,5,10-tetrahydro [2,3-C]pyran-3-yl) ketone], the VLB/OV3 was determined as 3.75.

On to `Nc1nc(C2CC3=C(CO2)C(=O)c2ccccc2C3=O)cs1` (stereo not shown) [BCH1189, 3-(3'-aminothiazolyl)-5,10-dioxo-1,3,4,5,10-pentahydronaphtho-[2,3-c]-pyran], for which the VLB/OV3 was determined as 4.09.

`CC(=O)[C@@H]1CC2=C(C(=O)c3ccccc3C2=O)[C@@H](O[C@H]2C[C@H](NC(=O)C(F)(F)F)[C@H](I)[C@H](C)O2)O1` [BCH1620, (1'-S,1-R,3-S)-methyl-(1-[2',3',6'-trideoxy-3'-trifluoroacetamido-4'-iodo-L-lyxohexopyranose]-5,10-dioxo-3,4,5,10-tetrahydronaphtho-[2,3-c]-pyran-3-yl)-ketone]: the VLB/OV3 is given as 51.31.

On to `COC(=O)C1(C(=O)OC)CC2=C(CO1)C(=O)c1ccccc1C2=O` [BCH1665, 3,3-bis-(methoxycarbonyl)-5,10-dioxo-3,4,5,10-tetrahydro-1H-naphtho-[2,3-c]-pyran], for which the VLB/OV3 is 1.14.

For the compound `CC(=O)O[C@H]1[C@@H](I)[C@H](O[C@H]2O[C@H](C(C)=O)CC3=C2C(=O)c2ccccc2C3=O)O[C@@H](C)[C@H]1OC(C)=O` [BCH1666, (1'S,1R,3S)-methyl-(1-[2',6'-dideoxy-3'-4'-diacetoxy-2'-iodo-L-lyxohexopyranose]-5,10-dioxo-3,4,5,10-tetrahydronaphtho [2,3-c]-pyran-3-yl) ketone], the VLB/OV3 was 0.75.

In the case of `CC(=O)O[C@H]1[C@@H](I)[C@H](O[C@@H]2O[C@@H](C(C)=O)CC3=C2C(=O)c2ccccc2C3=O)O[C@@H](C)[C@H]1OC(C)=O` [BCH1667, (1'S,1S,3R)-methyl-(1-[2',6'-dideoxy-3',4'-diacetoxy-2'-iodo-L-lyxohexopyranose]-5,10-dioxo-3,4,5,10-tetrahydronaphtho [2,3-c]-pyran-3-yl) ketone], the VLB/OV3 amounted to 7.32.

With `COC[C@@H]1CC2=C(C(=O)c3ccccc3C2=O)[C@@H](O[C@H]2C[C@H](NC(=O)C(F)(F)F)[C@H](O)[C@H](C)O2)O1` [BCH1691, (1'S,1R,3S)-5,10-dioxo-3-methoxymethyl-1-(2',3',6'-trideoxy-3'-trifluoroacetamido-L-lyxohexopyranose)-3,4,5,10-tetrahydro-1H-naphtho-[2,3-c]-pyran], the VLB/OV3 is on record as 2.10.

Consider `COCC1(COC)CC2=C(C(=O)c3ccccc3C2=O)[C@H](O[C@H]2C[C@H](NC(=O)C(F)(F)F)[C@H](O)[C@H](C)O2)O1` [BCH1697], for which the VLB/OV3 is 3.57.

Regarding `COC(=O)[C@H](CC(C)C)NC(=O)[C@H](CO[C@H]1O[C@H](C(C)=O)CC2=C1C(=O)c1ccccc1C2=O)NC(=O)OC(C)(C)C` [BCH1998, (1S,2'S,3S,5'S)-Methyl-(1-O-[N-BOC-Serine-Leucine-Me ester]-5,10-dioxo-3,4,5,10-tetrahydro-1-H-naphtho [2,3-c]pyran-3-yl) ketone], the VLB/OV3 is 13.28.

In the case of `COC(=O)[C@H](CC(C)C)NC(=O)[C@@H](N)CO[C@H]1O[C@H](C(C)=O)CC2=C1C(=O)c1ccccc1C2=O` [BCH2000, (1S,2'S,3S,5'S)-Methyl-(1-O-[Serine-Leucine-Me ester]-5,10-dioxo-3,4,5,10-tetrahydro-1-H-naphtho [2,3-c]pyran-3-yl) ketone hydrochloride], the VLB/OV3 was found to be 69.89.
